Laboratory results taken from patent US10519506B2, “Identification of metastasis-specific miRNA and hypomethylation signatures in human colorectal cancer” (Baylor Research Institute, priority 2011, dated 2019).

Experiments:
Format in all cases: cell-based, human
CRC cell lines [1] = experiment: miRNA expression (TaqMan miRNA assays) in CRC cell lines treated with RNA pol II inhibitor; settings: 50 μg/ml α-amanitin for 7 hours (FIG. 9)
Description: (§1) Additional materials and methods. CRC Cell line: CACO2, HCT116, RKO, SW48, SW480, and SW620. Tissue specimens: A total of 59 formalin-fixed, paraffin-embedded (FFPE) primary CRC tissues and corresponding liver metastasis tissues were analyzed. 5-Aza-2′-deoxycytidine (5-aza-dC) treatment: CRC cell lines were treated with 2.5 μM 5-aza-dC for 72 hours. α-amanitin treatment: CRC cell lines were treated with 50 μg/ml α-amanitin, a RNA pol II inhibitor, for 7 hours. Methylation analysis: Methylation levels were analyzed by bisulfite pyrosequencing for quantitative methylation analysis using PSQ HS 96A pyrosequencing system (Qiagen) on bisulfite modified genomic DNA template. microRNAs expression analysis: Expression of miR-373 and miR-520c was analyzed using TaqMan miRNA assays.

CRC cell lines [2] = experiment: miRNA expression (TaqMan miRNA assays) in CRC cell lines treated with demethylating agent
Description: (§2) Cell lines and 5-aza-2-deoxy-cytidine treatment. Seven CRC cell lines, HCT116, RKO, SW48, Caco-2, HT29, SW480, and SW620 were obtained from the American Type Culture Collection (ATCC, Rockville, Md.). Cell lines were treated with 2.5 μM 5-Aza-2′-deoxycytidine (5-aza-dC; Sigma-Aldrich) for 72 hours, and fresh medium containing 5-aza-dC was replaced every 24 hours.
miRNA expression analysis. Expression of fourteen metastasis-related miRNAs (let-7i, miR-10b, miR-30b, miR-34a, miR-141, miR-200b, miR-200c, miR-203, miR-221, miR-320a, miR-373, miR-429, miR-518d, and miR-520c) was analyzed using TaqMan miRNA assays (Applied Biosystems Inc., Foster City, Calif.). Expression of RNU6B (Applied Biosystems Inc., Foster City, Calif.) and miR-16 were used as endogenous controls for cell lines and FFPE tissues, respectively.
Additional materials and methods. CRC Cell line: CACO2, HCT116, RKO, SW48, SW480, and SW620. Tissue specimens: A total of 59 formalin-fixed, paraffin-embedded (FFPE) primary CRC tissues and corresponding liver metastasis tissues were analyzed. […] Methylation analysis: Methylation levels were analyzed by bisulfite pyrosequencing for quantitative methylation analysis using PSQ HS 96A pyrosequencing system (Qiagen) on bisulfite modified genomic DNA template. microRNAs expression analysis: Expression of miR-373 and miR-520c was analyzed using TaqMan miRNA assays.

CRC cell lines [3] = experiment: Alu methylation by quantitative bisulfite pyrosequencing in CRC cell lines treated with demethylating agent; settings: for methylation status of global Alu repetitive element: 2.5 μM 5-aza-dC for 72 hours, pyrosequencing (FIG. 3)
Description: as §2
DNA methylation analysis. Methylation levels of repetitive sequences (global Alu and local Alu) were analyzed by quantitative bisulfite pyrosequencing using the PSQ HS 96A pyrosequencing system (Qiagen) following bisulfite modification of genomic DNA using EZ DNA methylation Gold Kits (Zymo Research), as described previously.
as §1

Row | Compound | expression of miR-520c (CRC cell lines [1]) | miR-373 transcription / activation (CRC cell lines [1]) | miR-373 transcription / activation (CRC cell lines [1]; listed as RNA polymerase II inhibitor) | expression of miR-373 (CRC cell lines [2]; demethylating agent treatment) | expression of miR-520c (CRC cell lines [2]; demethylating agent treatment (FIG. 6B)) | methylation status of global Alu repetitive element (CRC cell lines [3]) | methylation status of global Alu repetitive element (CRC cell lines [3]; listed as 5-azacytidine) | methylation of Alu element in miR-373 promoter region (CRC cell lines [3]; 5Aza treatment)
1 | CC[C@H](C)[C@@H]1NC(=O)CNC(=O)[C@@H]2Cc3c([nH]c4cc(O)ccc34)[S+]([O-])C[C@@H](NC(=O)CNC1=O)C(=O)N[C@@H](CC(N)=O)C(=O)N1C[C@H](O)C[C@H]1C(=O)N[C@@H]([C@@H](C)[C@@H](O)CO)C(=O)N2 (stereo in doubt) [RNA pol II inhibitor, α-amanitin] | inhibited the expression | did not suppress activation | did not suppress |  |  |  |  | 
2 | Nc1ncn([C@H]2C[C@H](O)[C@@H](CO)O2)c(=O)n1 [5-aza, 5-Aza-2′-deoxycytidine] |  |  |  | induced | induced | markedly demethylated | Global hypomethylation of Alu sequences was observed | demethylated
